Experimental data published in ChEMBL document CHEMBL5038598, “Design and Synthesis of Pyrrolo[2,3-d]pyrimidine-Derived Leucine-Rich Repeat Kinase 2 (LRRK2) Inhibitors Using a Checkpoint Kinase 1 (CHK1)-Derived Crystallographic Surrogate” (J Med Chem, 2021).
The source made the active and inactive calls. The rule behind the calls is not given here.

Experiments:
[1] = Volume of distribution in steady state in Sprague-Dawley rat plasma at 1 mg/kg, IV […]; type: ADME, organism-based; details: read-out: Vdss
[2] = target: T1, Leucine-rich repeat serine/threonine-protein kinase 2 (Mus musculus, UniProt Q5S006); test: Inhibition of LRRK2-WT-pSER935 in C57BL/6 mouse brain at 10 to 150 mg/kg and measured after 1 hrs by western blotting; type: organism-based
T1 sequence (Q5S006 whole entry): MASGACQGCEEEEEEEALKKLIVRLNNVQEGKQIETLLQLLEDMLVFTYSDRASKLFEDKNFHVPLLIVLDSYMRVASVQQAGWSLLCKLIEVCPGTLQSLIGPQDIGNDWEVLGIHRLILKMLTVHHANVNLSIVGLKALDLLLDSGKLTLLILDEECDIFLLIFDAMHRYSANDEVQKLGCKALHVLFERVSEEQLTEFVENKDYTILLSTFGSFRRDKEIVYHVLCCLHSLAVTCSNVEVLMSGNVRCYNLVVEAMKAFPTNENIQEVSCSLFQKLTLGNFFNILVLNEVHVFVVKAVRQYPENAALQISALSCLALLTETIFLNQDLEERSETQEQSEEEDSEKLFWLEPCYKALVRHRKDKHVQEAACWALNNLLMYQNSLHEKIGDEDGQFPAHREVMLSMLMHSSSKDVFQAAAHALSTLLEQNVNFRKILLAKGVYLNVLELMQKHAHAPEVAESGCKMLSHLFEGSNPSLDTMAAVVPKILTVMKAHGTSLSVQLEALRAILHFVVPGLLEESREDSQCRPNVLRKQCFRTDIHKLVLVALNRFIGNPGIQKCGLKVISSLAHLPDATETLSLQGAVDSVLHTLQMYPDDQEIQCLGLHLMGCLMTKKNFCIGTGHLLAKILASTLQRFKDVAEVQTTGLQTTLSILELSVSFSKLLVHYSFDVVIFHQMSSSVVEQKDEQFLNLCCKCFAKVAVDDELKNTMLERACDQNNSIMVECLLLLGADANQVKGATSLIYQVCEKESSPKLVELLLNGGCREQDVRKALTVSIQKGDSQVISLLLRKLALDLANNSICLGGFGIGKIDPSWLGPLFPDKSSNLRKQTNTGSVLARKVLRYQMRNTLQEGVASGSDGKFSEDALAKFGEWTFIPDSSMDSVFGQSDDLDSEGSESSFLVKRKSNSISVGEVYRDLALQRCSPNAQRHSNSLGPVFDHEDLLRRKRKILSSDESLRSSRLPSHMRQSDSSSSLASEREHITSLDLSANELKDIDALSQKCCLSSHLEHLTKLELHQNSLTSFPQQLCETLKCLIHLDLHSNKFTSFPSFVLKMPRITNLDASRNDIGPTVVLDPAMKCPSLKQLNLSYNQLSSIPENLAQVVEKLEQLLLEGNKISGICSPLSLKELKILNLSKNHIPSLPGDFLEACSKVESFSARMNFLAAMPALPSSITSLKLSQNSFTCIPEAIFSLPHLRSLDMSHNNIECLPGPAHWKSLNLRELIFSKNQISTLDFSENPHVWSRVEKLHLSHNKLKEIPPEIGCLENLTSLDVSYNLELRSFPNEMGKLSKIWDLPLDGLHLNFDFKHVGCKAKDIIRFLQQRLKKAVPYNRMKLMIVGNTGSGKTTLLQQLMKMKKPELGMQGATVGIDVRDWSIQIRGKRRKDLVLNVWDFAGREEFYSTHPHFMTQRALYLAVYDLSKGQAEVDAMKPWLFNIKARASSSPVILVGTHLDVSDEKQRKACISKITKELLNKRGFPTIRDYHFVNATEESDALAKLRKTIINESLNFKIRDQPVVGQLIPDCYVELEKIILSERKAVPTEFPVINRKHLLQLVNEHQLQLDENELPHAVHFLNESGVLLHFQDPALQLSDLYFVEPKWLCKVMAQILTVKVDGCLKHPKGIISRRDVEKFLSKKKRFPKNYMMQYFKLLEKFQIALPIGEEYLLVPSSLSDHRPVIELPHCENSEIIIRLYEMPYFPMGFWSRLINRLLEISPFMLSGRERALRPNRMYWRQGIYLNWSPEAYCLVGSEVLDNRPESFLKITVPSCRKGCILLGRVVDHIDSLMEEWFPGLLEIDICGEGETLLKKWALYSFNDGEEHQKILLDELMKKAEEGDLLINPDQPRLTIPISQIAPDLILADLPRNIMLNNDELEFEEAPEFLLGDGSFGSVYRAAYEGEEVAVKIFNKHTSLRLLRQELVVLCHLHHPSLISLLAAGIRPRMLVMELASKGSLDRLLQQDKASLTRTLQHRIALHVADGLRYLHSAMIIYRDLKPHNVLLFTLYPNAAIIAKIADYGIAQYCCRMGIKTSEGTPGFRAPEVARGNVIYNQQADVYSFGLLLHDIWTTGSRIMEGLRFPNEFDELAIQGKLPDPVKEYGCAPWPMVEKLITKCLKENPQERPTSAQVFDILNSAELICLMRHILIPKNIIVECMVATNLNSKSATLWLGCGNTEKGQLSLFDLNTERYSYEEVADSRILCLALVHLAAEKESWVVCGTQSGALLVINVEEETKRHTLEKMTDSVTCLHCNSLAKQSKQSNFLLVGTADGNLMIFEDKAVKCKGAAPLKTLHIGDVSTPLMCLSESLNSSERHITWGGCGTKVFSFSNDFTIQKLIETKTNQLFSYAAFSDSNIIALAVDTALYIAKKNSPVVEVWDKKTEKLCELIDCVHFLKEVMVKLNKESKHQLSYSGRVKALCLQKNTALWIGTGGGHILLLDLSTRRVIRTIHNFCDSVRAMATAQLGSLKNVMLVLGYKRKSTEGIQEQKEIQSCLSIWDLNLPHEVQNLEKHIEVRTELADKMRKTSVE

[3] = target: Phosphatidylinositol 4-kinase beta (Homo sapiens, UniProt Q9UBF8); test: Binding affinity to human PIK4CB (M1/M828) WT expressed in mammalian system assessed as dissociation constant measured at 1 uM by DiscoveRx KINOMEscan assay
[4] = target: T2, Interleukin-1 receptor-associated kinase 3 (Homo sapiens) (UniProt Q9Y616); test: Inhibition of IRAK3 expressed in human PBMCs measured at 10 uM by KiNativ profiling analysis relative to control
T2 sequence (whole entry): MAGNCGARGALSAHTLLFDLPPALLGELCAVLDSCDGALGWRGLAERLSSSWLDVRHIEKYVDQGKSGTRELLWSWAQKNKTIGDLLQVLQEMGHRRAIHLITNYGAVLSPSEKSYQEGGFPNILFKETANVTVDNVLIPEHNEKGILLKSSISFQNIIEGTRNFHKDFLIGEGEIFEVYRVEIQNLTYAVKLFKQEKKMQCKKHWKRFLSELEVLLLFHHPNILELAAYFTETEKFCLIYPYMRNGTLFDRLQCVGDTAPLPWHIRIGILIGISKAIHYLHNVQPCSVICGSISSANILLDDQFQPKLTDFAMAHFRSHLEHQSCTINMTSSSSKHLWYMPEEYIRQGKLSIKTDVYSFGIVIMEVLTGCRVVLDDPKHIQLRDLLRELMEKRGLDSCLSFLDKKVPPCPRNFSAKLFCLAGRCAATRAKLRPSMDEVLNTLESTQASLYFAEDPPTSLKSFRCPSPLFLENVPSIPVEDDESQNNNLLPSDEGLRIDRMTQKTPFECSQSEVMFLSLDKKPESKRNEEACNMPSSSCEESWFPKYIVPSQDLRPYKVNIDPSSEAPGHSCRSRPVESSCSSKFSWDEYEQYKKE

[5] = Ratio of unbound drug level in Md1a/1b BCRP knockout C57BL/6 mouse brain to plasma at 5 mg/kg, sc and measured after 0.5 hrs; type: ADME, organism-based; details: in vivo
P-glycoprotein (human) = test: Efflux ratio of permeability across basolateral to apical side over apical to basolateral side in MDCK-MDR1 cells expressing human P-glycoprotein; details: dog
[6] = Oral bioavailability in Beagle dog plasma at 2 mg/kg relative to liver blood flow; type: ADME, organism-based, Canis lupus familiaris
[7] = target: T3, Leucine-rich repeat serine/threonine-protein kinase 2 (Homo sapiens, UniProt Q5S007, G2019S); test: Inhibition of LRRK2-pSer935 in LRRK2 G2019S mutant expressing human HEK293 cells and measured after 48 hrs by ICW assay; type: cell-based
T3 sequence (Q5S007 whole entry G2019S): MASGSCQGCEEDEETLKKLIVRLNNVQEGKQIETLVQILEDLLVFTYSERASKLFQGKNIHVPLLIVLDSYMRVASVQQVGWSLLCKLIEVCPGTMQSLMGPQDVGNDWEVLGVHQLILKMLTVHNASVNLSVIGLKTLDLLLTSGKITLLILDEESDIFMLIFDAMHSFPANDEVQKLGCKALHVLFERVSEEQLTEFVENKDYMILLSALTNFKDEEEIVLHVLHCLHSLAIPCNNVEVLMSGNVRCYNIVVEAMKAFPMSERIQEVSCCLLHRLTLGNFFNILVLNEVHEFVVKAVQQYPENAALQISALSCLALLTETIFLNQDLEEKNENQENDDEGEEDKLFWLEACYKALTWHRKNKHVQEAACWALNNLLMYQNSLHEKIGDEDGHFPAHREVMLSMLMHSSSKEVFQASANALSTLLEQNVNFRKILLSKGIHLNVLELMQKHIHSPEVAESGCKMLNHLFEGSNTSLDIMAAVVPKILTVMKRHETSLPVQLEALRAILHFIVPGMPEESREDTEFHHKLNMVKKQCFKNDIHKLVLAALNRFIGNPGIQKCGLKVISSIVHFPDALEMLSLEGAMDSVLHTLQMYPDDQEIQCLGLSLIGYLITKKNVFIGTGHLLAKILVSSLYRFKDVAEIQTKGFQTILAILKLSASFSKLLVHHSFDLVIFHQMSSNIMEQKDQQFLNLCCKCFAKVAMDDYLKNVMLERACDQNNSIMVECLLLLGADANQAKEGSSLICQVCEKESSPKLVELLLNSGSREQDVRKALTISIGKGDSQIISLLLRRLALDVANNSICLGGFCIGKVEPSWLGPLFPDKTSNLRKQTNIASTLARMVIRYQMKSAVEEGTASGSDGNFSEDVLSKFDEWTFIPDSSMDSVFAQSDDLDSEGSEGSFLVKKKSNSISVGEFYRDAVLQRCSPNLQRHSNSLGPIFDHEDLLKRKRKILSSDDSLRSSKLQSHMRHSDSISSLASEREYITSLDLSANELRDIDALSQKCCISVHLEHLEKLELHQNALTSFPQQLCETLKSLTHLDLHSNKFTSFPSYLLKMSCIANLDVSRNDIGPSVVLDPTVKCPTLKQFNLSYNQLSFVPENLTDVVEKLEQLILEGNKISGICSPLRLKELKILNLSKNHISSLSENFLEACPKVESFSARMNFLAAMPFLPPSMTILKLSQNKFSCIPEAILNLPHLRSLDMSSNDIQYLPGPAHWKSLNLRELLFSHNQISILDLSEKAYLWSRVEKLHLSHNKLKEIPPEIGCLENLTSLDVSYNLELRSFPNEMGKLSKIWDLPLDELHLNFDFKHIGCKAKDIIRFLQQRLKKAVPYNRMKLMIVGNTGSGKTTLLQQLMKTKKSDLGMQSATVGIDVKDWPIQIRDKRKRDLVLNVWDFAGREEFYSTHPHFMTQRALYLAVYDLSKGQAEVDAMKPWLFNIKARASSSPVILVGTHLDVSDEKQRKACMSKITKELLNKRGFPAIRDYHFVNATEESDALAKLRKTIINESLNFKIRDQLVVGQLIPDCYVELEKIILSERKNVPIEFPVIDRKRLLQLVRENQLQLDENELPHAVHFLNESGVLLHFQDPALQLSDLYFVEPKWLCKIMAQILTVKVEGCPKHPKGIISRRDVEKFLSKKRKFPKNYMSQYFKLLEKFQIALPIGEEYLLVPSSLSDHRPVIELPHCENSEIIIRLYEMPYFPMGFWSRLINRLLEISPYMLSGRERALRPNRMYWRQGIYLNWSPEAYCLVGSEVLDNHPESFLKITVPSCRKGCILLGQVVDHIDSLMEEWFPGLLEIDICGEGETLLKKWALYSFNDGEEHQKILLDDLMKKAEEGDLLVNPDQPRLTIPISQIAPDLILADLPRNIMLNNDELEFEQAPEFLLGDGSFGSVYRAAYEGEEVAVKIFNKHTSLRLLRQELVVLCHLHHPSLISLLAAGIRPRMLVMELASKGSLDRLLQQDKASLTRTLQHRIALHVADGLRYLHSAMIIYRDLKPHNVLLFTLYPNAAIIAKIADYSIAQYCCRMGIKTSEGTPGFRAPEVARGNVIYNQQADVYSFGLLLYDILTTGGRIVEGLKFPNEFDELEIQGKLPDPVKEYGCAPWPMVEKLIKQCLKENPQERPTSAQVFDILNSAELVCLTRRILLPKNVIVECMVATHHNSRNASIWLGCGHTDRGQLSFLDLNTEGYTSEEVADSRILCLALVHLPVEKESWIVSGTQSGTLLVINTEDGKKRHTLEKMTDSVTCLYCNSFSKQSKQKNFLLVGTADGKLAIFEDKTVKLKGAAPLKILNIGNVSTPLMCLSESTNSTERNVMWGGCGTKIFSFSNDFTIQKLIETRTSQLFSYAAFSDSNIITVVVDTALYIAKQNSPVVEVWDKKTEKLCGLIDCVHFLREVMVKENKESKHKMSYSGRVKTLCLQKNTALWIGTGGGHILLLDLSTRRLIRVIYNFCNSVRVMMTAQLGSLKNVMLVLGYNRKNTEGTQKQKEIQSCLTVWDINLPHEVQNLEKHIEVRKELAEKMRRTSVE

[8] = target: T4, Leucine-rich repeat serine/threonine-protein kinase 2 (Homo sapiens, UniProt Q5S007); test: Inhibition of LRRK2 WT expressed in human PBMCs measured by KiNativ profiling analysis
T4 sequence (Q5S007 whole entry): as the sequence (Q5S007 whole entry G2019S) above, with S2019G counted along it

[9] = Drug uptake in Mdr1a/ 1b-BCRP knockout C57BL/6 mouse plasma at 5 mg/kg, sc and measured after 0.5 hrs; type: ADME, organism-based
[10] = Binding affinity to human PIP5K2C (M1/A421) WT expressed in mammalian system assessed as dissociation constant measured at 1 uM by DiscoveRx KINOMEscan assay
[11] = Clearance in Sprague dawley rat plasma at 1 mg/kg, IV relative to liver blood flow; type: ADME, organism-based
[12] = Ratio of drug level in C57BL/6 WT mouse brain to plasma at 5 mg/kg, sc and measured after 0.5 hrs; type: ADME, organism-based; details: for Kp at 0.5 h: C57BL/6, mouse, brain and plasma
[13] = target: T4, Leucine-rich repeat serine/threonine-protein kinase 2; test: Inhibition of LRRK2-pSer935 in LRRK2 WT expressing human HEK293 cells and measured after 48 hrs by ICW assay; type: cell-based
[14] = Oral bioavailability in Sprague-Dawley rat plasma at 2 mg/kg relative to liver blood flow; type: ADME, organism-based
[15] = system: Receptor-type tyrosine-protein kinase FLT3 (Homo sapiens), P36888 [UNDEFINED MUTATION]; test: Inhibition of human FLT3 ITD, D835V (V592/Y969) mutant expressed in bacterial system assessed as remaining activity measured at 1 uM by DiscoveRx KINOMEscan assay relative to control; values are per cent of control
[16] = target: T1, Leucine-rich repeat serine/threonine-protein kinase 2; test: Inhibition of LRRK2-WT in C57BL/6 mouse brain at 10 to 150 mg/kg and measured after 1 hrs by western blotting; type: organism-based
[17] = target: Mitogen-activated protein kinase kinase kinase 1 (Homo sapiens, UniProt Q13233); test: Inhibition of MAP3K1 expressed in human PBMCs measured by KiNativ profiling analysis
Homo sapiens = species: Homo sapiens; test: Inhibition of human PIP5K2C (M1/A421) WT expressed in mammalian system assessed as remaining activity measured at 1 uM by DiscoveRx KINOMEscan assay relative to control
[18] = Drug uptake in Mdr1a/ 1b-BCRP knockout C57BL/6 mouse brain at 5 mg/kg, sc and measured after 0.5 hrs; type: ADME, organism-based; details: read-out: Drug uptake
[19] = Ratio of unbound drug level in C57BL/6 WT mouse brain to plasma at 5 mg/kg, sc and measured after 0.5 hrs; type: ADME, organism-based; details: C57BL/6, mouse
[20] = target: Receptor-type tyrosine-protein kinase FLT3 (Homo sapiens) (UniProt P36888); test: Inhibition of human FLT3 WT expressed in bacterial system assessed as remaining activity measured at 1 uM by DiscoveRx KINOMEscan assay
[21] = Mutagenecity in Salmonella enterica subsp. enterica serovar Typhimurium by Ames test; type: toxicity
[22] = Clearance in human liver microsomes; type: ADME, Microsome; details: read-out: CLH (converted)
[23] = Volume of distribution in steady state in Beagle dog plasma at 1 mg/kg, IV […]; type: ADME, organism-based, Canis lupus familiaris; details: read-out: Vdss
[24] = target: T3, Leucine-rich repeat serine/threonine-protein kinase 2; test: Inhibition of recombinant human GST tagged truncated LRRK2 G2019S mutant using fluorescein-labeled LRRKtide as substrate in presence of ATP preincubated for 50 mins followed by anti-phospho-LRRKtide antibody addition and measured after 30 mins by TR-FRET based Lanthascreen kinase activity assay
[25] = Clearance in Beagle dog plasma at 1 mg/kg, IV relative to liver blood flow; type: ADME, organism-based, Canis lupus familiaris
[26] = Half life in Sprague-Dawley rat plasma at 1 mg/kg, IV […]; type: ADME, organism-based
[27] = target: T4, Leucine-rich repeat serine/threonine-protein kinase 2; test: Inhibition of recombinant human LRRK2 WT using fluorescein-labeled LRRKtide as substrate in presence of ATP preincubated for 50 mins followed by anti-phospho-LRRKtide antibody addition and measured after 30 mins by TR-FRET based Lanthascreen kinase activity assay
[28] = target: T3, Leucine-rich repeat serine/threonine-protein kinase 2; test: Binding affinity to human LRRK2 (H970/E2527) G2019S mutant expressed in mammalian system assessed as dissociation constant measured at 1 uM by DiscoveRx KINOMEscan assay
[29] = Half life in steady state in Beagle dog plasma at 1 mg/kg, IV […]; type: ADME, organism-based, Canis lupus familiaris

Q: For `Cc1c(Nc2nc(N)c3c(C#N)c(N4CCC[C@H]4C)n(C)c3n2)cnn1[C@H]1CCOC1`, which Vd [1] is on record?
A: The Vd was 1.1 L/kg.

Q: And the IC50 [2]?
A: The IC50 was 0.023 µM.

Q: And the Kd [3]?
A: The Kd was 0.73 µM.

Q: And the inhibition [4]?
A: The inhibition was 37%.

Q: What about the Ratio [5] of the same compound?
A: The Ratio was 0.24.

Q: And the efflux ratio (P-glycoprotein (human))?
A: The efflux ratio was 0.9.

Q: What about the bioavailability [6] of the same compound?
A: Its bioavailability is 96%.

Q: And the IC50 [7]?
A: The IC50 was 0.051 µM.

Q: What about the IC50 [8] of the same compound?
A: Its IC50 is 0.086 µM.

Q: What about the concentration at 0.5 h [9] of the same compound?
A: The concentration at 0.5 h was 1600 ng/mL.

Q: What about the Kd [10] of the same compound?
A: Its Kd is 0.43 µM.

Q: What about the clearance [11] of the same compound?
A: The clearance was 76.7 mL/min/kg.

Q: And the Kp at 0.5 h [12]?
A: Its Kp at 0.5 h is 0.15.

Q: What about the IC50 [13] of the same compound?
A: Its IC50 is 0.14 µM.

Q: And the bioavailability [14]?
A: The bioavailability was < 1%.

Q: And the residual activity [15]?
A: The residual activity was 1.9%.

Q: What about the IC50 [16] of the same compound?
A: Its IC50 is 0.022 µM.

Q: And the IC50 [17]?
A: The IC50 was 0.84 µM.

Q: What about the Activity (Homo sapiens) of the same compound?
A: The Activity was < 37%.

Q: What about the concentration at 0.5 h [18] of the same compound?
A: Its concentration at 0.5 h is 1080 ng/g.

Q: What about the Kp uu at 0.5 h [19] of the same compound?
A: Its Kp uu at 0.5 h is 0.02.

Q: What about the inhibition [20] of the same compound?
A: The inhibition was “inactive”.

Q: What about the Activity [21] of the same compound?
A: Its Activity is “Non-Toxic”.

Q: What about the CLint scaled [22] of the same compound?
A: The CLint scaled was 23.3 mL/min/kg.

Q: What about the Vd [23] of the same compound?
A: The Vd was 1.8 L/kg.

Q: And the IC50 [24]?
A: The IC50 was 0.014 µM.

Q: What about the clearance [25] of the same compound?
A: Its clearance is 53.3 mL/min/kg.

Q: And the half-life [26]?
A: Its half-life is 12 min.

Q: And the IC50 [27]?
A: The IC50 was 0.023 µM.

Q: What about the Kd [28] of the same compound?
A: Its Kd is 0.0055 µM.

Q: And the half-life [29]?
A: The half-life was 36 min.

Q: With `Cc1c(Nc2nc(N)c3c(C#N)c(N4CCC[C@H]4C)n(C)c3n2)cnn1[C@@H]1CCOC1` as the compound, how does the Vd [1] read?
A: Its Vd is 1.7 L/kg.

Q: What about the IC50 [2] of the same compound?
A: The IC50 was 0.016 µM.

Q: What about the Kd [3] of the same compound?
A: Its Kd is 0.85 µM.

Q: What about the inhibition [4] of the same compound?
A: Its inhibition is -6%.

Q: And the Ratio [5]?
A: The Ratio was 0.37.

Q: And the efflux ratio (P-glycoprotein (human))?
A: The efflux ratio was 1.2.

Q: What about the bioavailability [6] of the same compound?
A: Its bioavailability is 25%.

Q: And the IC50 [7]?
A: The IC50 was 0.08 µM.

Q: What about the IC50 [8] of the same compound?
A: Its IC50 is 0.067 µM.

Q: What about the concentration at 0.5 h [9] of the same compound?
A: The concentration at 0.5 h was 1960 ng/mL.

Q: And the Kd [10]?
A: The Kd was 0.19 µM.

Q: And the clearance [11]?
A: Its clearance is 158 mL/min/kg.

Q: What about the Kp at 0.5 h [12] of the same compound?
A: Its Kp at 0.5 h is 0.06.

Q: And the Ratio ([12]; mouse, brain, 5 mg/kg, 0.5 h)?
A: The Ratio was 0.07.

Q: And the IC50 [13]?
A: The IC50 was 0.18 µM.

Q: And the bioavailability [14]?
A: The bioavailability was 5%.

Q: What about the residual activity [15] of the same compound?
A: Its residual activity is 25%.

Q: And the IC50 [16]?
A: The IC50 was 0.011 µM.

Q: What about the IC50 [17] of the same compound?
A: Its IC50 is 1.1 µM.

Q: And the Activity (Homo sapiens)?
A: Its Activity is < 37%.

Q: What about the concentration at 0.5 h [18] of the same compound?
A: The concentration at 0.5 h was 2060 ng/g.

Q: And the Kp uu at 0.5 h [19]?
A: Its Kp uu at 0.5 h is 0.02.

Q: What about the inhibition [20] of the same compound?
A: Its inhibition is “inactive”.

Q: And the Activity [21]?
A: The Activity was “Non-Toxic”.

Q: What about the CLint scaled [22] of the same compound?
A: Its CLint scaled is 28.3 mL/min/kg.

Q: What about the Vd [23] of the same compound?
A: The Vd was 1 L/kg.

Q: And the IC50 [24]?
A: Its IC50 is 0.012 µM.

Q: And the clearance [25]?
A: Its clearance is 36.7 mL/min/kg.

Q: And the half-life [26]?
A: The half-life was 6 min.

Q: And the IC50 [27]?
A: Its IC50 is 0.02 µM.

Q: What about the Kd [28] of the same compound?
A: Its Kd is 0.0039 µM.

Q: What about the half-life [29] of the same compound?
A: The half-life was 30 min.
